Experimental data taken from patent publication US20250059220A1, “SUBSTITUTED BENZOTHIOPHENE DERIVATIVES AND METHODS OF USE THEREOF” (Merck Sharp & Dohme LLC, priority 2021, published 2025).

Experiments:
human PTPN2 (1-387) = human PTPN2 (1-387) (Homo sapiens (Human), UniProt P17706); assay: Human PTPN2 Biochemical Assay; details: DiFMUP substrate
Procedure: Human PTPN2 Biochemical Assay
Test compounds were dissolved in DMSO, and 10-point serial 3-fold dilution series in DMSO were prepared in Echo Qualified 384-well Polypropylene Microplates (Labcyte, San Jose, CA) (top concentration 50 µM). Assay plates (384-well low volume black plates; Corning #3820, Corning, NY) were prepared by dispensing 50 nL of test compound, and DMSO (for high and low controls) by ECHO acoustic dispenser (Labcyte, San Jose CA). This was followed by addition of 5 μL of 0.2 nM human PTPN2 (1-387) solution (prepared in the assay buffer, 50 mM Tris pH 7.4, 150 mM NaCl, 0.01% Tween20, 0.5 mM dithiothreitol) to all wells except the low control. 5 μl of assay buffer was added into the low control, then the plate was incubated for 30 minutes at room temperature. Subsequently, 5 μl of 100 µM DiFMUP (6,8-difluoro-4-methylumbelliferyl phosphate) solution (prepared in assay buffer from 10 mM stock in DMSO) was added to the assay plate and incubated for 1 hour at room temperature. For detection, assay plates were read on SpectraMax Microplate Reader (Molecular Devices), with Excitation wavelength=360 nm and Emission wavelength=460 nm. Test compound effects were normalized to the window defined by the controls, DMSO/buffer, and DMSO/50 pM human PTPN2. Calculated % effects were fit using a 4-parameter algorithm, and EC50 was reported.

human PTPN1 (1-435) = human PTPN1 (1-435) (Homo sapiens (Human), UniProt P18031); assay: Human PTPN1 Biochemical Assay; details: DiFMUP substrate, read-out: PTP1B IC50
Procedure: Human PTPN1 Biochemical Assay
Test compounds were dissolved in DMSO, and 10-point serial 3-fold dilution series in DMSO were prepared in Echo Qualified 384-well Polypropylene Microplates (Labcyte, San Jose, CA) (top concentration 50 µM). […] 5 μl of assay buffer was added into the low control. The plate was incubated for 30 minutes at room temperature. Subsequently, 5 μl of 100 µM DiFMUP (6,8-difluoro-4-methylumbelliferyl phosphate) solution (prepared in assay buffer from 10 mM stock in DMSO) was added to the assay plate and incubated for 1 hour at room temperature. For detection, assay plates were read on SpectraMax Microplate Reader (Molecular Devices), with Excitation wavelength=360 nm and Emission wavelength=460 nm. […] Calculated % effects were fit using a 4-parameter algorithm, and EC50 was reported.

Sequence of human PTPN2 (1-387) (P17706 other isoform, or with tags, fused parts or gaps): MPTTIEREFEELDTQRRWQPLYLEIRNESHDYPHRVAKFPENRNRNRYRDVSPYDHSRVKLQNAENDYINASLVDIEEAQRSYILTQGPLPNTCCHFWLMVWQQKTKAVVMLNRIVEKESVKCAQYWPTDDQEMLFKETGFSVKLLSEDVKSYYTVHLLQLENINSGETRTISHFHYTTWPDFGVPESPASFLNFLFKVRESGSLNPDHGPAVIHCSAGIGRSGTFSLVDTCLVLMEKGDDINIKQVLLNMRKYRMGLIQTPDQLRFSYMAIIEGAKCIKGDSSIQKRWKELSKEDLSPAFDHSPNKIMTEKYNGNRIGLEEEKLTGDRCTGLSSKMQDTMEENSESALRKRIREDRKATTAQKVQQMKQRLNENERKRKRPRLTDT
Sequence of human PTPN1 (1-435) (P18031 whole entry): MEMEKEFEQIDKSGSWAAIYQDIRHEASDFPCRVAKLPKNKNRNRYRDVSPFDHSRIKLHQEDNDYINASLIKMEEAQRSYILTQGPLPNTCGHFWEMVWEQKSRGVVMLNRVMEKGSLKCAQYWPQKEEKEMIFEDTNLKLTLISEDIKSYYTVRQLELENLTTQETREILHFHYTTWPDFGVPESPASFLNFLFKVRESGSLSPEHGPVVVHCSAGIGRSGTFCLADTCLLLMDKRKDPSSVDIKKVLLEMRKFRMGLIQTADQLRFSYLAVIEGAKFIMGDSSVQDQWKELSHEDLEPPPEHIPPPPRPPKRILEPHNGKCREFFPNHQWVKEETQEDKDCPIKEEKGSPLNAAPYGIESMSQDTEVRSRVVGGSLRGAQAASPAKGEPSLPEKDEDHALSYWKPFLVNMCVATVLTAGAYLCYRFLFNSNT

SMILES: CC(=O)N1CCC(CNC(=O)c2ccc3sc(C(F)(F)P(=O)(O)O)c(Br)c3c2)(C(F)(F)F)C1 (stereo not drawn) [Compound 74]
- IC50 (human PTPN2 (1-387)): 7440 nM
- IC50 (human PTPN1 (1-435)): 5760 nM

SMILES: O=C(N[C@@H]1CCCC[C@H]1OCc1ccccc1)c1ccc2sc(C(F)(F)P(=O)(O)O)c(Br)c2c1 [Compound 75]
- IC50 (human PTPN2 (1-387)): 2700 nM
- IC50 (human PTPN1 (1-435)): 1850 nM

SMILES: O=C(NC1CCCN(c2ccccc2)C1)c1ccc2sc(C(F)(F)P(=O)(O)O)c(Br)c2c1 (stereo not drawn) [Compound 76]
- IC50 (human PTPN2 (1-387)): 958 nM
- IC50 (human PTPN1 (1-435)): 1880 nM

SMILES: CC(=O)N1CCc2ccc(NC(=O)c3ccc4sc(C(F)(F)P(=O)(O)O)c(Br)c4c3)cc21 [Compound 77]
- IC50 (human PTPN2 (1-387)): 1110 nM
- IC50 (human PTPN1 (1-435)): 730 nM

SMILES: CN1C[C@H]2[C@H](CNC(=O)c3ccc4sc(C(F)(F)P(=O)(O)O)c(Br)c4c3)[C@H]2c2ccccc21 [Compound 78]
- IC50 (human PTPN2 (1-387)): 1030 nM
- IC50 (human PTPN1 (1-435)): 1090 nM

SMILES: O=C(N[C@H]1CC(=O)N(C2CC2)C1)c1ccc2sc(C(F)(F)P(=O)(O)O)c(Br)c2c1 [Compound 79]
- IC50 (human PTPN2 (1-387)): 9750 nM
- IC50 (human PTPN1 (1-435)): 8100 nM

SMILES: CC(NC(=O)c1ccc2sc(C(F)(F)P(=O)(O)O)c(Br)c2c1)c1ccc2c(c1)OCCO2 (stereo not drawn) [Compound 80]
- IC50 (human PTPN2 (1-387)): 1890 nM
- IC50 (human PTPN1 (1-435)): 2130 nM

SMILES: CC(Cn1ccc2ccccc21)NC(=O)c1ccc2sc(C(F)(F)P(=O)(O)O)c(Br)c2c1 (stereo not drawn) [Compound 81]
- IC50 (human PTPN2 (1-387)): 27.3 nM
- IC50 (human PTPN1 (1-435)): 114 nM

SMILES: O=C(NCCc1nc(-c2ccccc2)cs1)c1ccc2sc(C(F)(F)P(=O)(O)O)c(Br)c2c1 [Compound 82]
- IC50 (human PTPN2 (1-387)): 1880 nM
- IC50 (human PTPN1 (1-435)): 1390 nM

SMILES: N#Cc1ccc2c(c1)CC(NC(=O)c1ccc3sc(C(F)(F)P(=O)(O)O)c(Br)c3c1)C2 (stereo not drawn) [Compound 83]
- IC50 (human PTPN2 (1-387)): 2010 nM
- IC50 (human PTPN1 (1-435)): 1630 nM

SMILES: CCC(COCc1ccccc1)NC(=O)c1ccc2sc(C(F)(F)P(=O)(O)O)c(Br)c2c1 (stereo not drawn) [Compound 84]
- IC50 (human PTPN2 (1-387)): 3470 nM
- IC50 (human PTPN1 (1-435)): 7430 nM

SMILES: CCN1C(=O)CCC12C[C@H]2CCNC(=O)c1ccc2sc(C(F)(F)P(=O)(O)O)c(Br)c2c1 (stereo partly drawn) [Compound 85]
- IC50 (human PTPN2 (1-387)): 4540 nM
- IC50 (human PTPN1 (1-435)): 4670 nM

SMILES: O=C(N[C@@H]1CCCC[C@H]1c1ccccc1)c1ccc2sc(C(F)(F)P(=O)(O)O)c(Br)c2c1 [Compound 86]
- IC50 (human PTPN2 (1-387)): 1450 nM
- IC50 (human PTPN1 (1-435)): 3780 nM

SMILES: COc1ccc(CCC(C)NC(=O)c2ccc3sc(C(F)(F)P(=O)(O)O)c(Br)c3c2)cc1 (stereo not drawn) [Compound 87]
- IC50 (human PTPN2 (1-387)): 3300 nM
- IC50 (human PTPN1 (1-435)): 7090 nM

SMILES: O=C(NC[C@]12C[C@@H]1CCN2Cc1ccccc1)c1ccc2sc(C(F)(F)P(=O)(O)O)c(Br)c2c1 [Compound 88]
- IC50 (human PTPN2 (1-387)): 1510 nM
- IC50 (human PTPN1 (1-435)): 1090 nM

SMILES: O=C(NCCn1nnc2ccccc21)c1ccc2sc(C(F)(F)P(=O)(O)O)c(Br)c2c1 [Compound 89]
- IC50 (human PTPN2 (1-387)): 6040 nM
- IC50 (human PTPN1 (1-435)): 5120 nM

SMILES: O=C(NCc1ccccc1N1CCOCC1)c1ccc2sc(C(F)(F)P(=O)(O)O)c(Br)c2c1 [Compound 90]
- IC50 (human PTPN2 (1-387)): 5800 nM
- IC50 (human PTPN1 (1-435)): 4200 nM

SMILES: O=C(NCc1nccc(-c2cccnc2)n1)c1ccc2sc(C(F)(F)P(=O)(O)O)c(Br)c2c1 [Compound 91]
- IC50 (human PTPN2 (1-387)): 6170 nM
- IC50 (human PTPN1 (1-435)): 4980 nM

SMILES: CC(C)(O)c1ccc(CNC(=O)c2ccc3sc(C(F)(F)P(=O)(O)O)c(Br)c3c2)cn1 [Compound 92]
- IC50 (human PTPN2 (1-387)): 3160 nM
- IC50 (human PTPN1 (1-435)): 1940 nM

SMILES: CC(C)C1CC(CNC(=O)c2ccc3sc(C(F)(F)P(=O)(O)O)c(Br)c3c2)C1 (stereo not drawn) [Compound 93]
- IC50 (human PTPN2 (1-387)): 4330 nM
- IC50 (human PTPN1 (1-435)): 4130 nM

SMILES: O=C(NCCc1c[nH]c2ccc(F)cc12)c1ccc2sc(C(F)(F)P(=O)(O)O)c(Br)c2c1 [Compound 94]
- IC50 (human PTPN2 (1-387)): 2800 nM
- IC50 (human PTPN1 (1-435)): 2400 nM

SMILES: COc1cccc(CNC(=O)c2ccc3sc(C(F)(F)P(=O)(O)O)c(Br)c3c2)c1OC(F)F [Compound 95]
- IC50 (human PTPN2 (1-387)): 4780 nM
- IC50 (human PTPN1 (1-435)): 3900 nM

SMILES: Cn1cc(NC(=O)c2ccc3sc(C(F)(F)P(=O)(O)O)c(Br)c3c2)cn1 [Compound 96]
- IC50 (human PTPN2 (1-387)): 1280 nM
- IC50 (human PTPN1 (1-435)): 940 nM

SMILES: O=C(N[C@H]1CCCNC1=O)c1ccc2sc(C(F)(F)P(=O)(O)O)c(Br)c2c1 [Compound 97]
- IC50 (human PTPN2 (1-387)): 8230 nM
- IC50 (human PTPN1 (1-435)): 7080 nM

SMILES: CC1CCCC(NC(=O)c2ccc3sc(C(F)(F)P(=O)(O)O)c(Br)c3c2)C1 (stereo not drawn) [Compound 98]
- IC50 (human PTPN2 (1-387)): 4730 nM
- IC50 (human PTPN1 (1-435)): 4570 nM

SMILES: CCn1nccc1NC(=O)c1ccc2sc(C(F)(F)P(=O)(O)O)c(Br)c2c1 [Compound 99]
- IC50 (human PTPN2 (1-387)): 3790 nM
- IC50 (human PTPN1 (1-435)): 2620 nM

SMILES: O=C(Nc1ccc(Sc2ccccc2)nc1)c1ccc2sc(C(F)(F)P(=O)(O)O)c(Br)c2c1 [Compound 100]
- IC50 (human PTPN2 (1-387)): 682 nM
- IC50 (human PTPN1 (1-435)): 540 nM
